Results on 8 molecules are retold here after US20230233569A1 (Revolution Medicines, Inc., priority 2020, published 2023).

SMILES strings stand for the structures. Like-named read-outs stand apart in the source and are kept apart here.

In assay [1] the test system is Capan-1 (K-Ras G12V). The assay is described as follows: CellTiter-Glo cell viability assay, 5-day treatment. In kind it is cell-based. The conditions noted are these: Homo sapiens, CAPAN-1, 120 h, 5-day treatment; read-out: Capan-1 Cell Viability assay data (K-Ras G12V, IC50). The method, boiled down:
(§1)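 Seeded cells received test compound by direct dispensing. On day 5 the plates sat at room temperature approximately 30 minutes, then luminescence was measured. Data were normalized to DMSO and curve-fitted with four parameters.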

Assay [2] concerns NCI-H358 (K-Ras G12C). Described as above. In kind it is cell-based. The conditions noted are these: Homo sapiens. The method, boiled down: as §1
In assay [3] the target is KRAS G12C (Homo sapiens, UniProt P01116+P62937, G12C). In words: Disruption of BRAF RBD interaction with Ras (FRET / MOA assay, with Cyclophilin A). In kind it is biochemical. The method in brief: (§2)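 Compound-driven ternary complex formation between nucleotide-loaded K-Ras and Cyclophilin A was measured as loss of BRAF RBD binding. Compounds (10-point 3-fold series, top 30 μM final) were incubated 3 h at 25 °C, then anti-His Eu-W1024 (10 nM) and anti-GST allophycocyanin (50 nM) added for 1.5 h. IC50 was taken from the TR-FRET ratio decrease versus DMSO.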

In assay [4] the target is NRAS G12C (Homo sapiens, UniProt P01111+P62937, G12C). Described as above. The assay is classed as biochemical.
Assay [5] deals with KRAS WT (Homo sapiens, UniProt P01116+P62937). The description is as above. In kind it is biochemical. The method, boiled down: as §2
The target in assay [6] is KRAS G13D (Homo sapiens, UniProt P01116+P62937, G13D). The description is as above. In kind it is biochemical. The method in brief: as §2
For assay [7], the target named is KRAS G12V (Homo sapiens, UniProt P01116+P62937, G12V). Described as above. The assay is classed as biochemical. The method, boiled down: as §2
The target of assay [8] is KRAS G12D (Homo sapiens, UniProt P01116+P62937, G12D). The assay is described as above. In kind it is biochemical. The method, boiled down: as §2
The target in assay [9] is KRAS G12S (Homo sapiens, UniProt P01116+P62937, G12S). The assay is described as above. In kind it is biochemical. The method, boiled down:
as §2

Assay [10] has as its target KRAS G13C (Homo sapiens, UniProt P01116+P62937, G13C). The assay is described as above. The assay is classed as biochemical. The method in brief: as §2
[11] abbreviates: NCI-H358, 120 h, 5-day treatment, read-out: H358 Cell Viability assay data (K-Ras G12C, IC50).
Where [12] appears, read: read-out: KRAS G12C FRET data, IC50.
Setting [13] is: NRAS G12C, read-out: NRAS G12C FRET data IC50.
[14] abbreviates: KRAS WT, read-out: KRAS WT FRET data IC50.
The mark [15] stands for this setting: KRAS G13D, read-out: KRAS G13D FRET data IC50.
Setting [16] is: KRAS G12V, read-out: KRAS G12V FRET data IC50.
Where [17] appears, read: read-out: KRAS G12D FRET data, IC50.
Setting [18] is: read-out: KRAS G12S FRET data, IC50.
The mark [19] stands for this setting: read-out: KRAS G13C FRET data, IC50.

Sequence of KRAS G13C (P01116 1-169 isoform P01116-2 G13C): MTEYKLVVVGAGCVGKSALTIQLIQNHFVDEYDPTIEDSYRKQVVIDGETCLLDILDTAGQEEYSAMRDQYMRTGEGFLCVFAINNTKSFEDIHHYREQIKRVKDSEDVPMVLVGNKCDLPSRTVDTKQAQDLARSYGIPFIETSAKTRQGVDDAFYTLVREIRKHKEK
Sequence of KRAS G13C (P62937 whole entry): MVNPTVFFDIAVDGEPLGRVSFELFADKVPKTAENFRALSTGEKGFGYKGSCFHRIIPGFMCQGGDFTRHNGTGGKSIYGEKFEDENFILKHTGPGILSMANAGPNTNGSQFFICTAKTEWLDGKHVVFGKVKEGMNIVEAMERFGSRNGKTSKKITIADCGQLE
Sequence of KRAS G12C (P01116 1-169 isoform P01116-2 G12C): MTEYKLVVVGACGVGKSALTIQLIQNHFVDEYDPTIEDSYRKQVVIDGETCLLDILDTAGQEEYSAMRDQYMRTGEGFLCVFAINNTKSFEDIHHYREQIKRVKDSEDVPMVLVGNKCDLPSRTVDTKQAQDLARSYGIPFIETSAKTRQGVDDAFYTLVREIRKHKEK
Sequence of KRAS G12C (P62937 whole entry): as the sequence (P62937 whole entry) above
Sequence of KRAS G12D (P01116 1-169 isoform P01116-2 G12D limits assumed): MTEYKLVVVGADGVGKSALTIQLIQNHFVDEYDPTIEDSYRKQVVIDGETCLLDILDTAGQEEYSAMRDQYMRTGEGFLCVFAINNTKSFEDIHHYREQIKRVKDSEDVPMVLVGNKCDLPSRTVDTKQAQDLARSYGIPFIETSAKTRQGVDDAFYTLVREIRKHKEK
Sequence of KRAS G12D (P62937 whole entry): as the sequence (P62937 whole entry) above
Sequence of KRAS WT (P01116 1-169 isoform P01116-2 limits assumed): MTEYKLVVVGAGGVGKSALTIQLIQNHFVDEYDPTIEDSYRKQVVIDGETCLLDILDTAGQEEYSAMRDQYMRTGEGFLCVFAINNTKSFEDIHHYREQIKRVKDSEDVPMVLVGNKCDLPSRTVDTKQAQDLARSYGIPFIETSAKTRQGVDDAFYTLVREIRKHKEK
Sequence of KRAS WT (P62937 whole entry): as the sequence (P62937 whole entry) above
Sequence of NRAS G12C (P01111 whole entry G12C): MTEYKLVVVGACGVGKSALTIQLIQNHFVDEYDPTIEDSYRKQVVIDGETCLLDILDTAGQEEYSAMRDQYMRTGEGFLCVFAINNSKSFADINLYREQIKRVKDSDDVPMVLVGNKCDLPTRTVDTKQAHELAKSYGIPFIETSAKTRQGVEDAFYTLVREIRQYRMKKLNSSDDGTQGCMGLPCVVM
Sequence of NRAS G12C (P62937 whole entry): as the sequence (P62937 whole entry) above
Sequence of KRAS G12V (P01116 1-169 isoform P01116-2 G12V limits assumed): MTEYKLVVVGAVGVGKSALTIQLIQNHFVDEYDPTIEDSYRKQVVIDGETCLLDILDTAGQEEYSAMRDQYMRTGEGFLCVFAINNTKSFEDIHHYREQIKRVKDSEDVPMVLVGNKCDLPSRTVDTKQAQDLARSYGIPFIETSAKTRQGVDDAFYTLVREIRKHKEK
Sequence of KRAS G12V (P62937 whole entry): as the sequence (P62937 whole entry) above
Sequence of KRAS G12S (P01116 1-169 isoform P01116-2 G12S limits assumed): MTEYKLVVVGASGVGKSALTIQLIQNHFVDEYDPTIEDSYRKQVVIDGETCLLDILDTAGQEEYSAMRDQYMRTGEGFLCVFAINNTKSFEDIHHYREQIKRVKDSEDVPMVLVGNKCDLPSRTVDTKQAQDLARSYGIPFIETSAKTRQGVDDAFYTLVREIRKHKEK
Sequence of KRAS G12S (P62937 whole entry): as the sequence (P62937 whole entry) above
Sequence of KRAS G13D (P01116 1-169 isoform P01116-2 G13D limits assumed): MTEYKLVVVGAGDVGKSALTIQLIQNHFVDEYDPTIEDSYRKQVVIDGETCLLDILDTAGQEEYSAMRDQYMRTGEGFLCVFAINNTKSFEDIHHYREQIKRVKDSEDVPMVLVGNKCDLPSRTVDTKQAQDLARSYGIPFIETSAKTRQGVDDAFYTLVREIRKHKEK
Sequence of KRAS G13D (P62937 whole entry): as the sequence (P62937 whole entry) above

Consider `CCn1c(-c2cc(N3CCN(C)CC3)cnc2[C@H](C)OC)c2c3cc(ccc31)-c1csc(n1)C[C@H](NC(=O)[C@H](C(C)C)N(C)C(=O)N1CC(OC)C1)C(=O)N1CCC[C@H](N1)C(=O)OCC(C)(C)C2` [Example A466], for which the half-maximal inhibitory concentration (IC50) in [1] was under 10 nM.

As to `CCn1c(-c2cccnc2COC)c2c3cc(ccc31)-c1cc(O)cc(c1)C[C@H](NC(=O)[C@H](C(C)C)N(C)C(=O)[C@H]1CCNC1)C(=O)N1CCC[C@H](N1)C(=O)OCC(C)(C)C2` [Example A32], the IC50 in [2] (setting [11]) was over 10000 nM; in [3] (setting [12]), 100 to 1000 nM; in assay [4] (setting [13]), 100 to 1000 nM; in assay [5] (setting [14]), 100 to 1000 nM; in assay [6] (setting [15]), 100 to 1000 nM; in assay [7] (setting [16]), 1000 to 10000 nM. Moreover, the IC50 in assay [8] (setting [17]), in assay [9] (setting [18]) and in assay [10] (setting [19]) was 100 to 1000 nM each time.

Regarding `CCn1c(-c2cnccc2COC)c2c3cc(ccc31)-c1cc(O)cc(c1)C[C@H](NC(=O)[C@H](C(C)C)N(C)C(=O)[C@H]1CCN(C(=O)N(C)C)C1)C(=O)N1CCC[C@H](N1)C(=O)OCC(C)(C)C2` [Example A42, (3S)-N3-[(1S)-1-{[(8S,14S)-22-ethyl-4-hydroxy-21-[4-(methoxymethyl)pyridin-3-yl]-18,18-dimethyl-9,15-dioxo-16-oxa-10,22,28-triazapentacyclo[18.5.2.1^2,6.1^10,14.0^23,27]nonacosa-1(26),2,4,6(29),20,23(27),24-heptaen-8-yl]carbamoyl}-2-methylpropyl]-N1,N1,N3-trimethylpyrrolidine-1,3-dicarboxamide], the IC50 in assay [2] (setting [11]) lay within 1000 to 10000 nM; in assay [3] (KRAS G12C FRET data, IC50) it was 100 to 1000 nM; in assay [4] (NRAS G12C FRET data IC50, NRAS G12C) it was 1000 to 10000 nM; in assay [5] (KRAS WT FRET data IC50, KRAS WT) it was 1000 to 10000 nM; in assay [6] (KRAS G13D FRET data IC50, KRAS G13D), 1000 to 10000 nM; in [7] (KRAS G12V FRET data IC50, KRAS G12V), 1000 to 10000 nM. Moreover, the concentration for half-maximal inhibition (IC50) in [8] (KRAS G12D FRET data, IC50) is over 10000 nM; in assay [9] (KRAS G12S FRET data, IC50) it was 1000 to 10000 nM; in assay [10] (KRAS G13C FRET data, IC50) it was 1000 to 10000 nM.

Turning to `C=CC(=O)N1C[C@@H](C(=O)N(C)[C@H](C(=O)N[C@H]2Cc3cccc(c3)-c3ccc4c(c3)c(c(-c3cccnc3[C@H](C)OC)n4CC)CC(C)(C)COC(=O)[C@@H]3CCCN(N3)C2=O)C(C)C)[C@@H](C(F)(F)F)C1` [Example A401], the half-inhibitory concentration (IC50) fell in the range of 100 to 1000 nM in assay [2] (NCI-H358, H358, K-Ras G12C, read-out: Additional H358 Cell Viability assay data (K-Ras G12C, IC50)); 1000 to 10000 nM in assay [3] (KRAS G12C, read-out: KRAS G12C FRET data IC50); 1000 to 10000 nM in assay [4] (setting [13]); 1000 to 10000 nM in assay [5] (setting [14]); 1000 to 10000 nM in assay [6] (setting [15]); 1000 to 10000 nM in assay [7] (setting [16]). The half-maximal inhibitory concentration (IC50) in assay [8] (setting [17]) is over 10000 nM; in assay [9] (setting [18]), 1000 to 10000 nM; in assay [10] (KRAS G13C, read-out: KRAS G13C FRET data IC50), 100 to 1000 nM.

Regarding `CCn1c(-c2cnccc2COC)c2c3cc(ccc31)-c1cc(O)cc(c1)C[C@H](NC(=O)[C@@H](OC(=O)N(C)C)C(C)C)C(=O)N1CCC[C@H](N1)C(=O)OCC(C)(C)C2` [Example A53], the IC50 in assay [2] (setting [11]) fell in the range of 1000 to 10000 nM; in assay [3] (setting [12]), 100 to 1000 nM; in assay [4] (setting [13]), 1000 to 10000 nM; in assay [5] (setting [14]) it was 1000 to 10000 nM; in [6] (setting [15]), 1000 to 10000 nM; in assay [7] (setting [16]) it was 1000 to 10000 nM. The results for the half-maximal inhibitory concentration (IC50) in assay [8] (setting [17]), in assay [9] (setting [18]) and in assay [10] (setting [19]) were over 10000 nM, 1000 to 10000 nM and 1000 to 10000 nM, respectively.

In the case of `CCn1c(-c2cnccc2COC)c2c3cc(ccc31)-c1cc(O)cc(c1)C[C@H](NC(=O)[C@H](C(C)C)N(C)C(=O)[C@H]1CCN(C(=O)C(C)(C)N(C)C)C1)C(=O)N1CCC[C@H](N1)C(=O)OCC(C)(C)C2` [Example A8], the IC50 in assay [1] is 1000 to 10000 nM.

`CCn1c(-c2cnccc2COC)c2c3cc(ccc31)-c1cc(O)cc(c1)C[C@H](NC(=O)[C@H](C(C)C)N(C)C(=O)[C@H]1CCN(S(=O)(=O)N3CC(N)C3)C1)C(=O)N1CCC[C@H](N1)C(=O)OCC(C)(C)C2` [Example A35]: the IC50 in [2] (setting [11]), in assay [3] (setting [12]), in assay [4] (setting [13]), in assay [5] (setting [14]), in [6] (setting [15]) and in [7] (setting [16]) was 100 to 1000 nM throughout. The results for the IC50 in [8] (setting [17]), in assay [9] (setting [18]) and in assay [10] (setting [19]) were 1000 to 10000 nM, 100 to 1000 nM and 100 to 1000 nM, respectively.

As to `CCn1c(-c2cccnc2[C@H](C)OC)c2c3cc(ccc31)-c1cc(O)cc(c1)C[C@H](NC(=O)[C@H](C(C)C)N(C)C(=O)C1(F)CC1)C(=O)N1CCC[C@H](N1)C(=O)OCC(C)(C)C2` [Example A165], the IC50 in [1] and in [7] (setting [16]) was 10 to 100 nM in each case.
